Earlier results, collected in patent US7087769B1, “Process for the preparation of cationic surfactants” (Laboratorios Miret, S.A., priority 2000, dated 2006).
Like-named read-outs stand apart in the source and are kept apart here.

Columns and labels:
Escherichia coli = conditions: EP-A-0 749 960
Staphylococcus aureus = conditions: EP-A-0 749 960
Pseudomonas aeruginosa = conditions: EP-A-0 749 960
Candida albicans = conditions: EP-A-0 749 960
Aspergillus niger = conditions: EP-A-0 749 960
[1] = tested on: Bordetella bronchiseptica
[2] = tested on: Klebsiella pneumoniae spp. pneumoniae
[3] = tested on: Bacillus cereus spp. mycoide
[4] = animals
[5] = human beings

CCCCCCCCCCCC(=O)N[C@@H](CCCNC(=N)N)C(=O)OCC.Cl [ethyl ester of N^α-lauroyl-L-arginine monohydrochloride]
efficacy against microorganism (Escherichia coli): proven
efficacy against microorganism (Staphylococcus aureus): proven
efficacy against microorganism (Pseudomonas aeruginosa): proven
efficacy against microorganism (Candida albicans): proven
efficacy against microorganism (Aspergillus niger): proven
efficacy against bacteria (Alcaligenes faecalis): efficaceous
efficacy against bacteria [1]: efficaceous
efficacy against bacteria (Citrobacter freundii): efficaceous
efficacy against bacteria (Enterobacter aerogenes): efficaceous
efficacy against bacteria [2]: efficaceous
efficacy against bacteria (Proteus mirabilis): efficaceous
efficacy against bacteria (Salmonelly thyphimurium): efficaceous
efficacy against bacteria (Serratia marcescens): efficaceous
efficacy against bacteria (Bacillus subtilus): efficaceous
efficacy against bacteria [3]: efficaceous
efficacy against bacteria (Micrococcus luteus): efficaceous
efficacy against bacteria (Arthrobacter oxydans): efficaceous
efficacy against bacteria (Mycobacterium phlei): efficaceous
efficacy against bacteria (Listeria monocytogenes): efficaceous
efficacy against yeasts (Rhodotorula rubra): efficaceous
efficacy against yeasts (Saccharomyces cerevisiae): efficaceous
efficacy against yeasts (Zygosaccharomyces rouxii): efficaceous
efficacy against fungi (Mucor rouxii): efficaceous
efficacy against fungi (Aureobasidium pullulans): efficaceous
efficacy against fungi (Chaetonium globosum): efficaceous
efficacy against fungi (Gliocadium virens): efficaceous
efficacy against fungi (Penicillium chrysogenum): efficaceous
efficacy against fungi (Penicillium funiculosum): efficaceous
tolerability [4]: well tolerated
tolerability [5]: well tolerated
